Assay results: patent publication US20080287396A1, “Phosphonated Fluoroquinolones, Antibacterial Analogs Thereof, and Methods for the Prevention and Treatment of Bone and Joint Infections” (TARGANTA THERAPEUTICA INC., priority 2005, published 2008)

Key:
[1] = Bone powder binding, fluorometric detection; conditions: for Binding to bone (%) Fluorescence: 1 mg/ml compound, bone meal powder 10 mg/ml in PBS, 37° C., 1 h; for binding to osseous matter, in words: bisphosphonates bearing three hydroxy groups
Procedure: The ability of the example molecules to bind to bone powder was established in two parallel fashions, using either LC/MS or fluorometric detection. For LC/MS detection, a stock solution (5 mM) of the compound to be tested was added to 0.1M Tris-HCl buffer pH 7, 0.15M NaCl to reach a final concentration of 100 μM. Triplicate samples (1 mL) of the compound solutions were intensively shaken for 10 min with or without 25 mg of fresh or 20 mg of vacuum dried ground rat tibia bone. The samples were then centrifuged for 15 min at 10 000 g. The presence of unbound compound was measured by injection of 30 μL of each of the supernatants into an Agilent 1100™ LC/UV system. For fluorometric detection, an individual compound was dissolved in PBS or water (compound 52) and resuspended at a concentration of 1 mg/ml in a slurry of bone meal powder (Now Foods, Bloomingdale, Ill., USA) in PBS at 10 mg/ml. The suspension of drug/prodrug in bone meal powder was incubated at 37° C. for 1 h to allow for binding, and centrifuged at 13 000 rpm for 2 min, before recovering the supernatant. The bone meal powder pellet was then washed three times with 1 ml of PBS. All supernatants were saved and assessed for fluoroquinolone content by fluorescence measurements at excitation/emission wavelengths of 280/465 nm. The amount of fluoroquinolone was determined from standard curves generated for each experiment. Amount of drug/prodrug bound to bone powder was deduced from the difference between the input amount (typically 1 mg) and the amount recovered in the supernatants after binding. In all binding experiments, >99% of input drug was recovered in the supernatant for the parent drugs.

S. aureus ATCC 13709 = assay: Prophylactic model of bone infection in rats; assay type: in vivo, rat; conditions: for prophylactic effect in rat model of bone infection, in words: Table 4 and FIGS. 6-8, doses as in Table 4
Procedure: To determine the activity in vivo of bisphosphonated prodrugs of fluoroquinolones, compounds 52 and 107, derivatives of parent compounds moxifloxacin 3 (for 52), and compounds 39, 44, 49, 54, 121, 129, 141, 145, 149, derivatives of parent compound gatifloxacin 15, were used in a prophylactic model for infection. Specifically, S. aureus ATCC 13709 cells were grown overnight at 37° C. in brain heart infusion broth (BHIB). Cells were subcultured into fresh BHIB and incubated for 4 to 5 h at 37° C. The cells were washed twice with phosphate-buffered saline (PBS) and resuspended in BHIB supplemented with 10% (vol./vol.) fetal bovine serum at a density of approximately 10^10 colony forming units (CFU)/ml (based upon turbidimetry). The suspension was aliquoted and a portion was used to check the CFU count. The culture was stored frozen (−80° C.) and was used without subculture. For use as an inoculum the culture was thawed, diluted in PBS and kept in an ice bath until it was used.
Animals were infected as described by O'Reilly et al. (Antimicrobial Agents and Chemotherapy (1992), 36(12): 2693-97) to generate the bone infection. Female CD rats (age, 57 to 70 days; n=5/group; Charles River, St-Constant, Canada) were anaesthetized by isofluorane before and during the surgery. Following complete induction of anesthesia, the rat was placed ventral side up and hair was shaved from the surgical site. The skin over the leg was cleaned and disinfected (proviodine-ethanol 70%). A longitudinal incision below the knee joint was made in the sagital plane. The incision was made over the bone below the “knee joint” (tibia head or condyle) but not completely extending to the ankle. A high speed drill fitted with a 2 mm bulb bit was used to drill a hole into the medullar cavity of the tibia. Rats were injected intra-tibially with 0.05 ml 5% sodium morrhuate (sclerosing agent) and then with 0.05 ml of S. aureus suspension (ca. 5×10^5 CFU/rat). The hole was sealed by applying a small amount of dry dental cement which immediately absorbs fluids and adheres to the site. The wound was closed using 3 metal skin clips. Moxifloxacin 3 (as a positive control) was injected once at 10 mg/kg intravenously 1 h postinfection in saline, while the fluoroquinolone prodrugs (prepared in 0.9% saline) were injected as a single intravenous bolus dose at different time points prior to the infection. For comparison, the parent drug (moxifloxacin 3 or gatifloxacin 15) was also injected intravenously once at a molar equivalent dose at the same time point prior the infection.
Infected rats were sacrificed by CO2 asphyxiation 24 h postinfection to monitor the bacterial CFU count. Infected tibiae were removed, dissected free of soft tissue, and weighed. The bones were ground using a metal ball mill, resuspended in 5 ml 0.9% NaCl, serially diluted and processed for quantitative cultures. For compounds 39, 44, 49, 54, 141, 145, 149, 1 ml of the 0.9% NaCl solution was added to 50 mg of charcoal before serial dilutions. Treatment efficacies were measured in terms of Log viable bacteria (Log CFU per gram of bone). The results obtained for each group of rats were evaluated by calculating the mean Log CFU and standard deviation. The limit of detection is 2 Log CFU/g of bone. Statistical comparisons of viable bacterial counts for the different treated and untreated groups were performed with Dunnett's multiple-comparison test. Differences were considered significant when the P value was <0.05 when comparing treated infected animals to the untreated infected ones.

Row | Compound | Binding to bone (%) Fluorescence [1] [%] | prophylactic effect in rat model of bone infection, in words (S. aureus ATCC 13709) | also measured
1 | O=C(O)c1cn(C2CC2)c2cc(N3CCNCC3)c(F)cc2c1=O [Compound 6, Ciprofloxacin, reference compound] | 0 | – | –
2 | COc1c(N2CCNC(C)C2)c(F)cc2c(=O)c(C(=O)SCCCC(P(=O)(O)O)P(=O)(O)O)cn(C3CC3)c12 (centres unmarked) [Compound 96, S-4,4-bisphosphonobutyl 7-(3-methylpiperazin-1-yl)-1-cyclopropyl-6-fluoro-1,4-dihydro-8-methoxy-4-oxoquinoline-3-carbothioate] | 98.7 | – | –
3 | COc1c(N2C[C@@H]3CCCN(C(=O)CC(P(=O)(O)O)P(=O)(O)O)[C@@H]3C2)c(F)cc2c(=O)c(C(=O)O)cn(C3CC3)c12 [Compound 107, 7-((4aS,7aS)-1-(3,3-bisphosphonopropionyl)-octahydropyrrolo[3,4-b]pyridin-6-yl)-1-cyclopropyl-6-fluoro-1,4-dihydro-8-methoxy-4-oxoquinoline-3-carboxylic acid] | 98.2 | lack of effect | Measured bacterial titer (Log CFU/g of bone) Test compound (S. aureus ATCC 13709; 19.4 mg/kg IV, 1 day prior to infection): 5.40 ± 0.93 Log CFU/g of bone
4 | COc1c(N2CCN(C(=O)CC(P(=O)(O)O)P(=O)(O)O)C(C)C2)c(F)cc2c(=O)c(C(=O)O)cn(C3CC3)c12 (centres unmarked) [Compound 112, 7-(4-(3,3-bisphosphonopropionyl)-3-methylpiperazin-1-yl)-1-cyclopropyl-6-fluoro-1,4-dihydro-8-methoxy-4-oxoquinoline-3-carboxylic acid] | 82.5 | – | –
5 | COc1c(N2C[C@@H]3CCCN(C(=O)OCC(=O)Nc4ccc(CC(P(=O)(O)O)P(=O)(O)O)cc4)[C@@H]3C2)c(F)cc2c(=O)c(C(=O)O)cn(C3CC3)c12 [Compound 117, 7-((4aS,7aS)-1-(((4-(2,2-bisphosphonoethyl)phenylcarbamoyl)methoxy)carbonyl)-octahydropyrrolo[3,4-b]pyridin-6-yl)-1-cyclopropyl-6-fluoro-1,4-dihydro-8-methoxy-4-oxoquinoline-3-carboxylic acid] | 99.4 | – | –
6 | COc1c(N2CCN(CCC(=O)c3ccc(OCCCC(P(=O)(O)O)P(=O)(O)O)cc3)C(C)C2)c(F)cc2c(=O)c(C(=O)O)cn(C3CC3)c12 (centres unmarked) [Compound 121, 1-cyclopropyl-6-fluoro-1,4-dihydro-7-(4-(3-(4-(4,4-bisphosphonobutoxy)phenyl)-3-oxopropyl)-3-methylpiperazin-1-yl)-8-methoxy-4-oxoquinoline-3-carboxylic acid] | 94.7 | efficient prophylactic effect | Measured bacterial titer (Log CFU/g of bone) Test compound (S. aureus ATCC 13709; 20.8 mg/kg IV, 1 day prior to infection): 3.01 ± 0.47 Log CFU/g of bone
7 | COc1c(N2CCN(Cc3oc(=O)oc3-c3ccc(P(=O)(O)CP(=O)(O)O)cc3)C(C)C2)c(F)cc2c(=O)c(C(=O)O)cn(C3CC3)c12 (centres unmarked) [Compound 129, 1-Cyclopropyl-6-fluoro-1,4-dihydro-8-methoxy-7-(3-methyl-4-((2-oxo-5-(4-(phosphonomethylphosphinoyl)phenyl)-1,3-dioxol-4-yl)methyl)piperazin-1-yl)-4-oxoquinoline-3-carboxylic acid] | 63.7 | unable to produce a positive result in vivo | Measured bacterial titer (Log CFU/g of bone) Test compound (S. aureus ATCC 13709; 10.75 mg/kg IV, 2 days prior to infection): 6.14 ± 1.05 Log CFU/g of bone; binding to osseous matter, in words [1]: less effectively bound
8 | COc1c(N2CCNC(C)C2)c(F)cc2c(=O)c(C(=O)OCC(=O)NCCCC[C@@H](NC(=O)COC(=O)c3cn(C4CC4)c4c(OC)c(N5CCNC(C)C5)c(F)cc4c3=O)C(=O)NC(P(=O)(O)O)P(=O)(O)O)cn(C3CC3)c12 (some centres unmarked) [Compound 134] | 92.8 | – | –
9 | COc1c(N2CCN(C(=O)CC(C)(C)c3cc(P(=O)(O)CP(=O)(O)O)ccc3OC(=O)C(C)C)C(C)C2)c(F)cc2c(=O)c(C(=O)O)cn(C3CC3)c12 (centres unmarked) [Compound 145, 7-(4-(3-(2-(2,2-dimethylacetoxy)-5-((phosphonomethyl)phosphonoyl)phenyl)-3-methylbutanoyl)-3-methylpiperazin-1-yl)-1-cyclopropyl-6-fluoro-1,4-dihydro-8-methoxy-4-oxoquinoline-3-carboxylic acid] | 76.0 | unable to produce a positive result in vivo | Measured bacterial titer (Log CFU/g of bone) Test compound (S. aureus ATCC 13709; 47.2 mg/kg IV, 2 days prior to infection): 4.69 ± 0.78 Log CFU/g of bone; binding to osseous matter, in words [1]: less effectively bound

Second part, led by results:

Row | Binding to bone (%) Fluorescence [1] [%] | Compound | prophylactic effect in rat model of bone infection, in words (S. aureus ATCC 13709) | also measured
10 | 97.2 | COc1c(N2C[C@@H]3CCCN[C@@H]3C2)c(F)cc2c(=O)c(C(=O)OCC(=O)Nc3ccc(CC(P(=O)(O)O)P(=O)(O)O)cc3)cn(C3CC3)c12 [Compound 62, (4-(2,2-Bisphosphonoethyl)phenylcarbamoyl)methyl 1-cyclopropyl-6-fluoro-1,4-dihydro-7-((4aS,7aS)-octahydropyrrolo[3,4-b]pyridin-6-yl)-8-methoxy-4-oxoquinoline-3-carboxylate] | – | –
11 | 97.3 | COc1c(N2C[C@@H]3CCCN[C@@H]3C2)c(F)cc2c(=O)c(C(=O)OCC(=O)N(C)C(P(=O)(O)O)P(=O)(O)O)cn(C3CC3)c12 [Compound 80, (N-Methyl-1,1-Bisphosphonomethylcarbamoyl)methyl 1-cyclopropyl-6-fluoro-1,4-dihydro-7-((4aS,7aS)-octahydropyrrolo[3,4-b]pyridin-6-yl)-8-methoxy-4-oxoquinoline-3-carboxylate] | – | –
12 | 99.9 | COc1c(N2C[C@@H]3CCCN[C@@H]3C2)c(F)cc2c(=O)c(C(=O)SCCCC(P(=O)(O)O)P(=O)(O)O)cn(C3CC3)c12 [Compound 94, S-4,4-bisphosphonobutyl 7-((4aS,7aS)-octahydropyrrolo[3,4-b]pyridin-6-yl)-1-cyclopropyl-6-fluoro-1,4-dihydro-8-methoxy-4-oxoquinoline-3-carbothioate] | – | –
13 | 99.0 | COc1c(N2C[C@@H]3CCCN[C@@H]3C2)c(F)cc2c(=O)c(C(=O)SCC(=O)NC(P(=O)(O)O)P(=O)(O)O)cn(C3CC3)c12 [Compound 99, S-(1,1-Bisphosphonomethylcarbamoyl)methyl 1-cyclopropyl-6-fluoro-1,4-dihydro-7-((4aS,7aS)-octahydropyrrolo[3,4-b]pyridin-6-yl)-8-methoxy-4-oxoquinoline-3-carbothioate] | – | –
